Laboratory results as given in publication PMC9972953, “Thermophilic Carboxylesterases from Hydrothermal Vents of the Volcanic Island of Ischia Active on Synthetic and Biobased Polymers and Mycotoxins” (Applied and Environmental Microbiology, 2023).

How the values were obtained:
Format in all cases: biochemical, uncultured Chloroflexota bacterium
Conditions in all cases: pH 9.0, 30°C
IS10 [1] = system: T1, IS10; assay: spectrophotometric release of p-nitrophenol, […] nm
T1 construct: N-terminal 6xHis tag (pET-46 Ek/LIC), E. coli BL21(DE3); dimer in solution

IS12 [2] = system: T2, IS12; assay: spectrophotometric release of p-nitrophenol, […] nm
T2 construct: N-terminal 6xHis tag (pET-46 Ek/LIC), E. coli BL21(DE3); dimer in solution

IS10 [3] = system: T1, IS10; assay: spectrophotometric release of α-naphthol, […] nm
IS12 [4] = system: T2, IS12; assay: spectrophotometric release of α-naphthol, […] nm

SMILES | Km (IS10 [1]) | Km (IS12 [2]) | KM (IS10 [3]) | Km (IS10 [3]) | Km (IS12 [4])
CC(=O)Oc1ccc([N+](=O)[O-])cc1 [pNP-acetate] | 50 ± 10 µM | 220 ± 50 µM |  |  | 
CCCC(=O)Oc1ccc([N+](=O)[O-])cc1 [pNP-butyrate] | 60 ± 10 µM | 80 ± 10 µM |  |  | 
CCCCCC(=O)Oc1ccc([N+](=O)[O-])cc1 [pNP-hexanoate] | 40 ± 10 µM | 90 ± 10 µM |  |  | 
CCCC(=O)Oc1cccc2ccccc12 [αN-butyrate] |  |  | 120 ± 40 µM |  | 
CCC(=O)Oc1cccc2ccccc12 [αN-propionate] |  |  |  | 60 ± 20 µM | 690 ± 190 µM
